Assay results reported in patent US20250295646A1, “METHODS OF USE OF T-TYPE CALCIUM CHANNEL MODULATORS” (Praxis Precision Medicines, Inc., priority 2022, published 2025).

Tested on: adult patients with essential tremor
Assay: Example 16: accelerometer-based (Kinesia ONE) TETRAS upper limb score
Format: in vivo, human
Source text: Accelerometer (Kinesia ONE) TETRAS assessments were generally consistent with those conducted at the clinic. Accelerometer upper limb score values are summarized for Part A, the open-label titration phase of Part B, and the randomized withdrawal phase of Part B in Table 37, Table 38, and Table 39, respectively

[1] = Part B Open-Label Titration (N = 17), Day 42, Post - dose
[2] = Part B Open-Label Titration (N = 17), Day 42, Pre - dose
[3] = Part B Open-Label Titration, pre-dose baseline upper limb scores ≥10 (N = 12), Day 1, Post - dose
[4] = Part B Open-Label Titration, pre-dose baseline upper limb scores ≥10 (N = 12), Day 7
[5] = Part B Open-Label Titration, pre-dose baseline upper limb scores ≥10 (N = 12), Day 21
[6] = Part B Open-Label Titration, pre-dose baseline upper limb scores ≥10 (N = 12), Day 42, Post - dose
[7] = Part B Open-Label Titration, pre-dose baseline upper limb scores ≥10 (N = 12), Day 42, Pre - dose
[8] = Part B Randomized Withdrawal, Formula (I) group (N = 6), Day 1, Post - dose
[9] = Part B Randomized Withdrawal, Formula (I) group (N = 6), Day 7
[10] = Part B Randomized Withdrawal, Formula (I) group (N = 6), Day 21
[11] = Part B Randomized Withdrawal, Formula (I) group (N = 6), Day 42, Post - dose
[12] = Part B Randomized Withdrawal, Formula (I) group (N = 6), Day 42, Pre - dose
[13] = Part B Randomized Withdrawal, Formula (I) group (N = 6), Day 42 Post - dose (Randomization Baseline)
[14] = Part B Randomized Withdrawal, Formula (I) group (N = 6), Day 56
[15] = Part B Randomized Withdrawal, Formula (I) group (N = 6), Day 70
[16] = Part B Randomized Withdrawal, Day 56
[17] = Part B Randomized Withdrawal, Day 70

In the case of `CC(C)(C)NC(=O)CN1CCC(CNC(=O)c2cc(F)cc(Cl)c2)CC1` [compound of formula (I), N-((1-(2-(tert-butylamino)-2-oxoethyl)piperidin-4-yl)methyl)-3-chloro-5-fluorobenzamide], the “Percentage Change from Baseline in Tremor Amplitude, Median” value (“Percentage Change from Baseline … Median” below) (Part B Open-Label Titration (N = 17), Day 21) is reported as −17.46%, the “Accelerometer-Based Upper Limb Score, Change from Baseline, LS Mean (SE)” value [1] is reported as −1.798 (0.4511) and the “Accelerometer-Based Upper Limb Score, Change from Baseline, Mean (SD)” value [1] is reported as −1.73 (2.009). For the same compound, the “Accelerometer-Based Upper Limb Score, Change from Baseline, Median” value [1] was −2.40, the “Accelerometer-Based Upper Limb Score, observed, Mean (SD)” value [1] was 9.44 (2.857) and the “Accelerometer-Based Upper Limb Score, observed, Median” value [1] was 8.60. The “LS Mean Percentage Change in Tremor Amplitude” value [1] was −29.2%, the “Percentage Change from Baseline in Tremor Amplitude, Mean (SD)” value (from here on “Percentage Change from Baseline … (SD)”) [1] was −24.06 (27.567) % and the “Percentage Change from Baseline … Median” value [1] was −36.90%. For the same compound, the “Accelerometer-Based Upper Limb Score, Change from Baseline, LS Mean (SE)” value [2] was −1.766 (0.5175), the “Accelerometer-Based Upper Limb Score, Change from Baseline, Mean (SD)” value [2] was −1.70 (1.829) and the “Accelerometer-Based Upper Limb Score, Change from Baseline, Median” value [2] was −2.00. The “Accelerometer-Based Upper Limb Score, observed, Mean (SD)” value [2] was 9.48 (3.369), the “Accelerometer-Based Upper Limb Score, observed, Median” value [2] was 9.65 and the “LS Mean Percentage Change in Tremor Amplitude” value [2] was −28.7%. For the same compound, the “Percentage Change from Baseline … (SD)” value [2] was −24.79 (26.969) %, the “Percentage Change from Baseline … Median” value [2] was −31.87% and the “Accelerometer-Based Upper Limb Score, Change from Baseline, LS Mean (SE)” value [3] was −0.764 (0.4030). For the same compound, the “Accelerometer-Based Upper Limb Score, Change from Baseline, Mean (SD)” value [3] was −0.75 (1.696), the “Accelerometer-Based Upper Limb Score, Change from Baseline, Median” value [3] was −0.93 and the “Accelerometer-Based Upper Limb Score, observed, Mean (SD)” value [3] was 11.00 (2.303). The “Accelerometer-Based Upper Limb Score, observed, Median” value [3] was 10.95, the “LS Mean Percentage Change in Tremor Amplitude” value [3] was −13.6% and the “Percentage Change from Baseline … (SD)” value [3] was −11.30 (25.126) %. For the same compound, the “Percentage Change from Baseline … Median” value [3] was −16.10%, the “Accelerometer-Based Upper Limb Score, Change from Baseline, LS Mean (SE)” value [4] was −1.677 (0.4345) and the “Accelerometer-Based Upper Limb Score, Change from Baseline, Mean (SD)” value [4] was −2.03 (1.939). For the same compound, the “Accelerometer-Based Upper Limb Score, Change from Baseline, Median” value [4] was −2.05, the “Accelerometer-Based Upper Limb Score, observed, Mean (SD)” value [4] was 9.96 (3.151) and the “Accelerometer-Based Upper Limb Score, observed, Median” value [4] was 11.10. For the same compound, the “LS Mean Percentage Change in Tremor Amplitude” value [4] was −27.5%, the “Percentage Change from Baseline … (SD)” value [4] was −28.60 (24.257) % and the “Percentage Change from Baseline … Median” value [4] was −32.52%. The “Accelerometer-Based Upper Limb Score, Change from Baseline, LS Mean (SE)” value [5] was −2.295 (0.6539), the “Accelerometer-Based Upper Limb Score, Change from Baseline, Mean (SD)” value [5] was −2.04 (2.248) and the “Accelerometer-Based Upper Limb Score, Change from Baseline, Median” value [5] was −1.48. The “Accelerometer-Based Upper Limb Score, observed, Mean (SD)” value [5] was 9.91 (2.999), the “Accelerometer-Based Upper Limb Score, observed, Median” value [5] was 10.98 and the “LS Mean Percentage Change in Tremor Amplitude” value [5] was −35.6%. For the same compound, the “Percentage Change from Baseline … (SD)” value [5] was −27.37 (27.794) %, the “Percentage Change from Baseline … Median” value [5] was −24.34% and the “Accelerometer-Based Upper Limb Score, Change from Baseline, LS Mean (SE)” value [6] was −1.818 (0.5342). For the same compound, the “Accelerometer-Based Upper Limb Score, Change from Baseline, Mean (SD)” value [6] was −1.87 (2.027), the “Accelerometer-Based Upper Limb Score, Change from Baseline, Median” value [6] was −2.40 and the “Accelerometer-Based Upper Limb Score, observed, Mean (SD)” value [6] was 9.93 (2.878). The “Accelerometer-Based Upper Limb Score, observed, Median” value [6] was 10.40, the “LS Mean Percentage Change in Tremor Amplitude” value [6] was −29.4% and the “Percentage Change from Baseline … (SD)” value [6] was −26.06 (27.100) %. The “Percentage Change from Baseline … Median” value [6] was −36.90%, the “Accelerometer-Based Upper Limb Score, Change from Baseline, LS Mean (SE)” value [7] was −1.559 (0.5803) and the “Accelerometer-Based Upper Limb Score, Change from Baseline, Mean (SD)” value [7] was −1.57 (1.914). The “Accelerometer-Based Upper Limb Score, Change from Baseline, Median” value [7] was −2.00, the “Accelerometer-Based Upper Limb Score, observed, Mean (SD)” value [7] was 10.23 (3.244) and the “Accelerometer-Based Upper Limb Score, observed, Median” value [7] was 11.15. The “LS Mean Percentage Change in Tremor Amplitude” value [7] was −25.9%, the “Percentage Change from Baseline … (SD)” value [7] was −22.96 (28.661) % and the “Percentage Change from Baseline … Median” value [7] was −31.87%. The “Accelerometer-Based Upper Limb Score, Change from Baseline, Mean (SD)” value [8] was −0.08 (1.710), the “Accelerometer-Based Upper Limb Score, Change from Baseline, Median” value [8] was −0.78 and the “Accelerometer-Based Upper Limb Score, observed, Mean (SD)” value [8] was 9.98 (2.321). The “Accelerometer-Based Upper Limb Score, observed, Median” value [8] was 10.78, the “Percentage Change from Baseline … (SD)” value [8] was −2.18 (27.539) % and the “Percentage Change from Baseline … Median” value [8] was −13.59%. For the same compound, the “Accelerometer-Based Upper Limb Score, Change from Baseline, Mean (SD)” value [9] was −0.79 (1.542), the “Accelerometer-Based Upper Limb Score, Change from Baseline, Median” value [9] was −1.20 and the “Accelerometer-Based Upper Limb Score, observed, Mean (SD)” value [9] was 9.55 (2.774). For the same compound, the “Accelerometer-Based Upper Limb Score, observed, Median” value [9] was 10.15, the “Percentage Change from Baseline … (SD)” value [9] was −12.59 (25.197) % and the “Percentage Change from Baseline … Median” value [9] was −19.95%. For the same compound, the “Accelerometer-Based Upper Limb Score, Change from Baseline, Mean (SD)” value [10] was −0.56 (1.273), the “Accelerometer-Based Upper Limb Score, Change from Baseline, Median” value [10] was −0.55 and the “Accelerometer-Based Upper Limb Score, observed, Mean (SD)” value [10] was 9.50 (2.760). The “Accelerometer-Based Upper Limb Score, observed, Median” value [10] was 9.88, the “Percentage Change from Baseline … (SD)” value [10] was −8.75 (21.102) % and the “Percentage Change from Baseline … Median” value [10] was −9.68%. The “Accelerometer-Based Upper Limb Score, Change from Baseline, Mean (SD)” value [11] was −0.68 (1.718), the “Accelerometer-Based Upper Limb Score, Change from Baseline, Median” value [11] was −0.23 and the “Percentage Change from Baseline … (SD)” value [11] was −9.46 (26.746) %. The “Percentage Change from Baseline … Median” value [11] was −3.87%, the “Accelerometer-Based Upper Limb Score, Change from Baseline, Mean (SD)” value [12] was −0.73 (1.948) and the “Accelerometer-Based Upper Limb Score, Change from Baseline, Median” value [12] was −0.98. For the same compound, the “Accelerometer-Based Upper Limb Score, observed, Mean (SD)” value [12] was 9.33 (2.645), the “Accelerometer-Based Upper Limb Score, observed, Median” value [12] was 10.40 and the “Percentage Change from Baseline … (SD)” value [12] was −10.75 (29.656) %. The “Percentage Change from Baseline … Median” value [12] was −17.06%, the “Accelerometer-Based Upper Limb Score, observed, Mean (SD)” value [13] was 9.38 (2.242) and the “Accelerometer-Based Upper Limb Score, observed, Median” value [13] was 9.50. For the same compound, the “Accelerometer-Based Upper Limb Score, Change from Baseline, Mean (SD)” value [14] was −0.55 (3.145), the “Accelerometer-Based Upper Limb Score, Change from Baseline, Median” value [14] was 0.62 and the “Accelerometer-Based Upper Limb Score, Change from Randomization, LS Mean (SE)” value [14] was 0.120 (0.9528). The “Accelerometer-Based Upper Limb Score, Change from Randomization, Mean (SD)” value [14] was 0.13 (1.495), the “Accelerometer-Based Upper Limb Score, Change from Randomization, Median” value [14] was 0.70 and the “Accelerometer-Based Upper Limb Score, observed, Mean (SD)” value [14] was 9.51 (2.810). For the same compound, the “Accelerometer-Based Upper Limb Score, observed, Median” value [14] was 9.75, the “LS Mean Percentage Change in Tremor Amplitude (from Randomization)” value [14] was 2.3% and the “Percentage Change from Baseline … (SD)” value [14] was −4.53 (43.487) %. For the same compound, the “Percentage Change from Baseline … Median” value [14] was 9.78%, the “Percentage Change from Randomization in Tremor Amplitude, Mean (SD)” value [14] was 2.74 (24.404) % and the “Percentage Change from Randomization in Tremor Amplitude, Median” value [14] was 12.37%. For the same compound, the “Accelerometer-Based Upper Limb Score, Change from Baseline, Mean (SD)” value [15] was 1.30 (2.932), the “Accelerometer-Based Upper Limb Score, Change from Baseline, Median” value [15] was 0.35 and the “Accelerometer-Based Upper Limb Score, Change from Randomization, LS Mean (SE)” value [15] was 2.482 (1.0202). For the same compound, the “Accelerometer-Based Upper Limb Score, Change from Randomization, Mean (SD)” value [15] was 2.34 (2.050), the “Accelerometer-Based Upper Limb Score, Change from Randomization, Median” value [15] was 1.85 and the “Accelerometer-Based Upper Limb Score, observed, Mean (SD)” value [15] was 11.33 (2.653). For the same compound, the “Accelerometer-Based Upper Limb Score, observed, Median” value [15] was 12.40, the “LS Mean Percentage Change in Tremor Amplitude (from Randomization)” value [15] was 37.9% and the “Percentage Change from Baseline … (SD)” value [15] was 14.62 (35.044) %. For the same compound, the “Percentage Change from Baseline … Median” value [15] was 6.50%, the “Percentage Change from Randomization in Tremor Amplitude, Mean (SD)” value [15] was 32.71 (20.891) % and the “Percentage Change from Randomization in Tremor Amplitude, Median” value [15] was 29.88%. The “LS Mean (SE) for Difference (Formula (I) - Placebo), change from Randomization in accelerometer-based upper limb score” value [16] was −2.227 (1.4135), the “LS Mean Percentage Change Difference (Formula (I) - Placebo)” value [16] was −34.0% and the “LS Mean (SE) for Difference (Formula (I) - Placebo), change from Randomization in accelerometer-based upper limb score” value [17] was −0.356 (1.4667). The “LS Mean Percentage Change Difference (Formula (I) - Placebo)” value [17] was −4.1%.
